The record followed here is ChEMBL document CHEMBL3813676, “2-Benzoyl-6-benzylidenecyclohexanone analogs as potent dual inhibitors of acetylcholinesterase and butyrylcholinesterase” (Bioorg Med Chem, 2016).

Calls of active or inactive are those of the source. The rule behind the calls is not given here.

In assay [1] the target is Acetylcholinesterase (Electrophorus electricus) (UniProt O42275). Kind of assay: Inhibition of electric eel AChE preincubated for 15 mins at 10 uM followed by addition of acetylthiocholine iodide as substrate measured after 30 mins by Ellman's microplate assay.
Sequence of Acetylcholinesterase (Electrophorus electricus) (O42275 24-633 limits assumed): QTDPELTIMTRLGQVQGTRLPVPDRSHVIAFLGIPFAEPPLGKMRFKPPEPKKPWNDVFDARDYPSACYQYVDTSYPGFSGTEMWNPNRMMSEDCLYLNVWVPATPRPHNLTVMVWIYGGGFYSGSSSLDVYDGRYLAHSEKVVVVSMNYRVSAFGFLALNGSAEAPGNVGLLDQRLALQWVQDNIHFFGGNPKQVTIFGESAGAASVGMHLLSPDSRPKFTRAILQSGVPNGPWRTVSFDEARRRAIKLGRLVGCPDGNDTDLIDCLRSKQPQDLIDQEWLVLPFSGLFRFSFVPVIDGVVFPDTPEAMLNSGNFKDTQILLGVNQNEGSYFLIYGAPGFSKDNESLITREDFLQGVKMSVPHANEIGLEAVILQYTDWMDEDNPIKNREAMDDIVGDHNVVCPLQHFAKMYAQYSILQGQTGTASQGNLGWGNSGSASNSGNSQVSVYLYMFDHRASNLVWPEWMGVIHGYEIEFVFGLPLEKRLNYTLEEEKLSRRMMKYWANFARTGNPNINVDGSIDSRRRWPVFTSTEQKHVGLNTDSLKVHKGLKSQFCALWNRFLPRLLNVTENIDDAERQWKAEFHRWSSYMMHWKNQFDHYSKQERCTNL
Assay [2] addresses Cholinesterase (Equus caballus) (UniProt P81908). In words: Inhibition of equine serum BChE preincubated for 15 mins at 10 uM followed by addition of S-butyrylthiocholine iodide as substrate measured after 30 mins by Ellman's microplate assay.
The target in assay [3] is T1, Acetylcholinesterase (Electrophorus electricus, UniProt O42275).
T1 sequence (O42275 whole entry): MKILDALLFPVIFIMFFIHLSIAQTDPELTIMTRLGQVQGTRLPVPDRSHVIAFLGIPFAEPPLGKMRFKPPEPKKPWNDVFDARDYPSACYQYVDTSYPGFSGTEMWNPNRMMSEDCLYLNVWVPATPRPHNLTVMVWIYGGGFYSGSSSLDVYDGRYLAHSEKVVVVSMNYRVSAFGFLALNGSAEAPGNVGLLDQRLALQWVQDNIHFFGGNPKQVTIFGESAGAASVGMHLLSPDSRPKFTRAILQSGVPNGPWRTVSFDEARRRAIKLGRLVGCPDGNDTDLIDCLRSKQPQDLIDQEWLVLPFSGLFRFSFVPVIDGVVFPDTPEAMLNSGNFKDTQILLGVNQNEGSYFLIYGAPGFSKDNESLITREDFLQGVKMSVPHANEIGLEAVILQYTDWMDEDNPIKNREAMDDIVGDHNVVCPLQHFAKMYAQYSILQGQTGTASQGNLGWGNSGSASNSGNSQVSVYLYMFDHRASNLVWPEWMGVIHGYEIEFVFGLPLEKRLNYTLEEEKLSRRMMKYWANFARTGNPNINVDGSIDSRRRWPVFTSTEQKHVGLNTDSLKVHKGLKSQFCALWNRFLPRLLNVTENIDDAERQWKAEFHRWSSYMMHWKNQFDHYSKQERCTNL
Description: Inhibition of electric eel AChE preincubated for 15 mins followed by addition of acetylthiocholine iodide as substrate measured after 30 mins by Ellman's microplate assay
In assay [4] the target is T2, Cholinesterase (Equus caballus, UniProt P81908).
T2 sequence (P81908 whole entry): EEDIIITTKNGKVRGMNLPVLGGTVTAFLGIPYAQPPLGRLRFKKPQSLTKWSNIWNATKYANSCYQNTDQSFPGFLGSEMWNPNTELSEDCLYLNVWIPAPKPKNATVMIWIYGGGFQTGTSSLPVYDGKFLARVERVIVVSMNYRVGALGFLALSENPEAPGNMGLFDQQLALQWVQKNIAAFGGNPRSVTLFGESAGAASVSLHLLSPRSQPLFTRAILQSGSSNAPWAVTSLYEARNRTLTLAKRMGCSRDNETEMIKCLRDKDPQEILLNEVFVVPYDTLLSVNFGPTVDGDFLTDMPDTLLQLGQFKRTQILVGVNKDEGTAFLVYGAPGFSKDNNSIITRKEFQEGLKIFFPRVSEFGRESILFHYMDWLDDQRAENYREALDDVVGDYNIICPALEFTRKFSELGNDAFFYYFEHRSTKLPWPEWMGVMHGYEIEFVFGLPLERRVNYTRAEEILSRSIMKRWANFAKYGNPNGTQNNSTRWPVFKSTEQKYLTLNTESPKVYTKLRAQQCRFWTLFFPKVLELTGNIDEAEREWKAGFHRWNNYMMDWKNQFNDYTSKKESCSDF
Description: Inhibition of equine serum BChE preincubated for 15 mins followed by addition of S-butyrylthiocholine iodide as substrate measured after 30 mins by Ellman's microplate assay
The target in assay [5] is T1, Acetylcholinesterase. Kind of assay: Mixed type inhibition of electric eel AChE preincubated for 15 mins followed by addition of acetylthiocholine iodide as substrate measured after 30 mins by Lineweaver-Burk double reciprocal plot analysis.
In assay [6] the target is T2, Cholinesterase. Kind of assay: Mixed type inhibition of equine serum BChE preincubated for 15 mins followed by addition of S-butyrylthiocholine iodide as substrate measured after 30 mins by Lineweaver-Burk double reciprocal plot analysis.

Sequence of Cholinesterase (Equus caballus) (P81908 whole entry): as above

Consider `COc1ccccc1/C=C1\CCCC(C(=O)c2ccccc2)=C1O`, for which the inhibition entry in assay [1] and in assay [2] was “inactive” each time.
Molecule `O=C(C1=C(O)/C(=C/c2ccc(Cl)cc2Cl)CCC1)c1ccccc1` displayed an IC50 on Acetylcholinesterase [3] of 5.4 µM. For the same molecule, in assay [1], the inhibition result is “Active”. For the same molecule, the inhibition result in assay [2] was “inactive”.
For the molecule `COc1ccc(/C=C2\CCCC(C(=O)c3ccccc3)=C2O)cc1`, the inhibition entry in assay [1] and in assay [2] was “inactive” throughout.
Consider `COc1cc(/C=C2\CCCC(C(=O)c3ccccc3)=C2O)cc(OC)c1OC`, for which the inhibition entry in assay [1] and in assay [2] was “inactive” each time.
Turning to `COc1ccc(/C=C2\CCCC(C(=O)c3ccccc3)=C2O)cc1O`, the inhibition entry in assay [1] and in assay [2] was “inactive” in each case.
With `O=C(C1=C(O)/C(=C/c2ccc(O)cc2)CCC1)c1ccccc1`, the inhibition entry in assay [1] and in assay [2] was “inactive” in each case.
With `O=C(C1=C(O)/C(=C/c2ccc(Br)cc2)CCC1)c1ccccc1`, on Acetylcholinesterase [3], the IC50 amounted to 8.7 µM. Moreover, in assay [1], the inhibition result was “Active”. Moreover, the inhibition result in assay [2] is “inactive”.
With `O=C(C1=C(O)/C(=C/c2cccc(F)c2)CCC1)c1ccccc1`, half-maximal inhibition against Acetylcholinesterase [3] (IC50) required 9.7 µM. Further, the inhibition entry in assay [1] is “Active”. Also, in assay [2], the inhibition result is “inactive”.
Regarding `COc1ccc(/C=C2\CCCC(C(=O)c3ccccc3)=C2O)cc1OC`, the inhibition entry in assay [1] and in assay [2] was “inactive” in each case.
Turning to `O=C(C1=C(O)/C(=C/c2ccc(Cc3ccccc3)cc2)CCC1)c1ccccc1`, it took 8.4 µM to reach half-maximal inhibition against Acetylcholinesterase [3] (IC50). Besides, the inhibition result in assay [1] was “Active”. The inhibition entry in assay [2] was “inactive”.
The molecule `O=C(C1=C(O)/C(=C/c2ccc(Br)c(Br)c2)CCC1)c1ccccc1` registered an IC50 on Acetylcholinesterase [3] of 9 µM. Besides, the inhibition entry in assay [1] is “Active”. Besides, the inhibition result in assay [2] was “inactive”.
In the case of `O=C(C1=C(O)/C(=C/c2ccc(F)c(F)c2)CCC1)c1ccccc1`, inhibition against Acetylcholinesterase [3] was half-maximal at 8.7 µM (IC50). Also, the inhibition result in assay [1] is “Active”. The inhibition result in assay [2] was “inactive”.
For `O=C(C1=C(O)/C(=C/c2cccs2)CCC1)c1ccccc1`, in that order: 5.1 µM, “Active” and “inactive”.
The corresponding values for `O=C(C1=C(O)/C(=C/c2ccc(Cl)c(Cl)c2)CCC1)c1ccccc1` are 9.8 µM, “Active” and “inactive”.
In the case of `O=C(C1=C(O)/C(=C/c2ccc3ccccc3c2)CCC1)c1ccccc1`, 8.3 µM corresponded to half-maximal inhibition at Acetylcholinesterase [3] (IC50). The inhibition result in assay [1] is “Active”. Also, the inhibition entry in assay [2] is “inactive”.
Take `O=C(C1=C(O)/C(=C/c2cccc(O)c2)CCC1)c1ccccc1`: the inhibition entry in assay [1] and in assay [2] was “inactive” in each case.
Consider `O=C(C1=C(O)/C(=C/c2ccc(OCCN3CCCC3)cc2)CCC1)c1ccccc1`, for which the IC50 came to 2 µM against Acetylcholinesterase [3] and 2.3 µM against Cholinesterase [4]. Further, the inhibition entry in assay [1] and in assay [2] was “Active” in each case.
Turning to `O=C(C1=C(O)/C(=C/c2cccc(OCCN3CCCCC3)c2)CCC1)c1ccccc1`, the IC50 against Acetylcholinesterase [3] was found to be 3.1 µM; on Cholinesterase [4], 1.4 µM. For the same molecule, the inhibition result in assay [1] and in assay [2] was “Active” each time.
On Acetylcholinesterase [3], `O=C(C1=C(O)/C(=C/c2ccccc2Br)CCC1)c1ccccc1` had an IC50 of 8.4 µM. The inhibition result in assay [1] was “Active”. Further, in assay [2], the inhibition result is “inactive”.
`Cc1ccc(/C=C2\CCCC(C(=O)c3ccccc3)=C2O)cc1` displayed an IC50 against Acetylcholinesterase [3] of 8.5 µM. Besides, the inhibition entry in assay [1] was “Active”. Also, in assay [2], the inhibition result is “inactive”.
On to `COc1cc(/C=C2\CCCC(C(=O)c3ccccc3)=C2O)ccc1O`, for which the inhibition result in assay [1] and in assay [2] was “inactive” each time.
With `Cc1cccc(/C=C2\CCCC(C(=O)c3ccccc3)=C2O)c1`, the IC50 at Acetylcholinesterase [3] came out at 8.6 µM. Besides, in assay [1], the inhibition entry was “Active”. In assay [2], the inhibition entry was “inactive”.
Consider `COc1ccc(OC)c(/C=C2\CCCC(C(=O)c3ccccc3)=C2O)c1`, for which the inhibition entry in assay [1] and in assay [2] was “inactive” throughout.
Consider `O=C(C1=C(O)/C(=C/c2ccc(O)c(Br)c2)CCC1)c1ccccc1`, for which the inhibition result in assay [1] was “inactive”. This molecule returned an IC50 against Cholinesterase [4] of 4.7 µM. In addition, the inhibition entry in assay [2] is “Active”.
For `O=C(C1=C(O)/C(=C/c2ccccc2F)CCC1)c1ccccc1`, the IC50 against Acetylcholinesterase [3] came to 6.6 µM. The inhibition entry in assay [1] was “Active”. Further, the inhibition result in assay [2] was “inactive”.
On Acetylcholinesterase [3], `O=C(C1=C(O)/C(=C/c2cccc(Cl)c2Cl)CCC1)c1ccccc1` had an IC50 of 5.9 µM. In addition, the inhibition entry in assay [1] was “Active”. For the same molecule, the inhibition result in assay [2] was “inactive”.
For the molecule `COc1cccc(/C=C2\CCCC(C(=O)c3ccccc3)=C2O)c1OC`, the inhibition entry in assay [1] and in assay [2] was “inactive” in each case.
Molecule `O=C(C1=C(O)/C(=C/c2cccc(Cc3ccccc3)c2)CCC1)c1ccccc1` gave an IC50 against Acetylcholinesterase [3] of 7.8 µM. For the same molecule, the inhibition result in assay [1] is “Active”. In addition, the inhibition entry in assay [2] was “inactive”.
As to `O=C(C1=C(O)/C(=C/c2ccc(OCCN3CCCCC3)cc2)CCC1)c1ccccc1`, the IC50 on Acetylcholinesterase [3] was determined as 1.6 µM; on Cholinesterase [4], 2.7 µM. The inhibition entry in assay [1] and in assay [2] was “Active” in each case. Further, on Acetylcholinesterase [5], the inhibitory constant (Ki) was 1.9 µM.
Take `Cc1ccc(/C=C2\CCCC(C(=O)c3ccccc3)=C2O)s1`: the IC50 against Acetylcholinesterase [3] came to 5.9 µM. Moreover, the inhibition entry in assay [1] is “Active”. In assay [2], the inhibition result is “inactive”.
As for `O=C(C1=C(O)/C(=C/c2ccc(O)c(O)c2)CCC1)c1ccccc1`, in assay [1], the inhibition result is “inactive”. Besides, the IC50 against Cholinesterase [4] came out at 6.5 µM. In assay [2], the inhibition entry is “Active”.
Turning to `O=C(C1=C(O)/C(=C/c2ccc(O)c(Cl)c2)CCC1)c1ccccc1`, in assay [1], the inhibition result was “inactive”. This molecule showed an IC50 at Cholinesterase [4] of 10.6 µM. Also, in assay [2], the inhibition entry was “Active”.
As to `O=C(C1=C(O)/C(=C/c2cccc(OCCN3CCCC3)c2)CCC1)c1ccccc1`, the concentration for half-maximal inhibition (IC50) on Acetylcholinesterase [3] amounted to 3.5 µM; at Cholinesterase [4], 0.6 µM. Moreover, the inhibition result in assay [1] and in assay [2] was “Active” in each case. This molecule registered a Ki at Cholinesterase [6] of 0.2 µM.
On Acetylcholinesterase [3], `O=C(C1=C(O)/C(=C/c2ccccc2Cl)CCC1)c1ccccc1` returned a half-inhibitory concentration (IC50) of 8.2 µM. The inhibition result in assay [1] and in assay [2] was “inactive” in each case.
Consider `COc1ccc(/C=C2\CCCC(C(=O)c3ccccc3)=C2O)c(OC)c1OC`, for which the inhibition entry in assay [1] and in assay [2] was “inactive” in each case.
On to `O=C(C1=C(O)/C(=C/c2ccccc2)CCC1)c1ccccc1`, for which the inhibition entry in assay [1] and in assay [2] was “inactive” each time.
On Acetylcholinesterase [3], `O=C(C1=C(O)/C(=C/c2ccc(F)cc2)CCC1)c1ccccc1` returned an IC50 of 6.6 µM. In addition, the inhibition result in assay [1] is “Active”. Besides, the inhibition result in assay [2] was “inactive”.
With `COc1cccc(/C=C2\CCCC(C(=O)c3ccccc3)=C2O)c1`, half-maximal inhibition at Acetylcholinesterase [3] (IC50) was put at 7.4 µM. Moreover, the inhibition result in assay [1] was “Active”. Further, the inhibition entry in assay [2] was “inactive”.
The molecule `O=C(C1=C(O)/C(=C/c2ccc(Cl)cc2)CCC1)c1ccccc1` registered an IC50 on Acetylcholinesterase [3] of 7.6 µM. Besides, the inhibition entry in assay [1] is “Active”. For the same molecule, the inhibition result in assay [2] was “inactive”.
For `O=C(C1=C(O)/C(=C/c2cccc3ccccc23)CCC1)c1ccccc1`, in that order: 7.6 µM, “Active” and “inactive”.
As to `O=C(C1=C(O)/C(=C/c2cccc(Cl)c2)CCC1)c1ccccc1`, the inhibition result in assay [1] and in assay [2] was “inactive” each time.
